Measurements from article PMC7914897, “Cytotoxic Potential of a-Azepano- and 3-Amino-3,4-SeCo-Triterpenoids” (International Journal of Molecular Sciences, 2021).
Where two headings read alike, the source gives them in different places.

Legend:
[1] = test system: Melanoma subpanel; assay: NCI-60 screen, subpanel; details: Homo sapiens; for IC (TGI): 48 h, read-out: TGI MG_MID; for GI50: read-out: GI50 MG_MID; for CC50: read-out: LC50 MG_MID
[2] = test system: NIH 3T3 (non-malignant mouse fibroblasts); assay: SRB cytotoxicity assay, 72 h; format: cell-based; details: Mus musculus, NIH3T3; NIH 3T3, 72 h, cut-off 30 µM; read-out: EC50
How it was run: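 EC50 values reflect percent surviving cells versus untreated controls, read at 570 nm after SRB staining of TCA-fixed monolayers. Dosing spanned 0–30 µM over 72 h.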

[3] = test system: NCI-H322M (NSC lung cancer); assay: NCI-60 screen (SRB, 48 h); details: Homo sapiens; for IC (TGI): 48 h, read-out: TGI; for CC50: read-out: LC50
[4] = test system: Colon Cancer subpanel; assay: NCI-60 screen, subpanel; details: Homo sapiens; for IC (TGI): 48 h, read-out: TGI MG_MID; for GI50: read-out: GI50 MG_MID
[5] = test system: HCC-2998 (Colon cancer); assay: NCI-60 screen (SRB, 48 h); details: for GI50: HCC 2998; for IC (TGI): HCC 2998, 48 h, read-out: TGI
[6] = test system: Breast cancer subpanel; assay: NCI-60 screen, subpanel; details: Homo sapiens; for IC (TGI): 48 h, read-out: TGI MG_MID; for GI50: read-out: GI50 MG_MID; for CC50: read-out: LC50 MG_MID
[7] = test system: LOX IMVI (Melanoma); assay: NCI-60 screen (SRB, 48 h); format: cell-based; details: Homo sapiens; for IC (TGI) / activity at 10 µM: 48 h; for activity at 10 µM: 1 dose 10 µM, read-out: Growth % of the Most Sensitive Cell Lines; for GI50: read-out: GI50
[8] = test system: NCI-H460 (NSC lung cancer); assay: NCI-60 screen (SRB, 48 h); details: Homo sapiens; for GI50: NCI-H460; for IC (TGI): NCI-H460, 48 h, read-out: TGI
[9] = test system: MDA-MB-468 (Breast cancer); assay: cells; details: Homo sapiens; for GI50: MDA-MB-468; for IC (TGI): MDA-MB-468, 48 h, read-out: TGI
[10] = test system: KM12 (Colon cancer); assay: NCI-60 screen (SRB, 48 h); details: Homo sapiens; for GI50: KM12; for IC (TGI): KM12, 48 h, read-out: TGI
[11] = test system: Leukemia subpanel; assay: cells; details: Homo sapiens; for IC (TGI): 48 h, read-out: TGI MG_MID; for GI50: read-out: GI50 MG_MID; for CC50: read-out: LC50 MG_MID
[12] = test system: CNS cancer subpanel; assay: NCI-60 screen, subpanel; details: Homo sapiens; for IC (TGI): 48 h, read-out: TGI MG_MID; for GI50: read-out: GI50 MG_MID; for CC50: read-out: LC50 MG_MID
[13] = test system: NCI-H522 (NSC lung cancer); assay: NCI-60 screen (SRB, 48 h); details: Homo sapiens; for GI50: NCI-H522; for IC (TGI): NCI-H522, 48 h, read-out: TGI; for CC50: NCI-H522, read-out: LC50
[14] = test system: OVCAR-3 (Ovarian cancer); assay: cells; details: Homo sapiens; for GI50: OVCAR-3; for IC (TGI): OVCAR-3, 48 h, read-out: TGI
[15] = test system: MOLT-4 (Leukemia); assay: NCI-60 screen (SRB, 48 h); details: Homo sapiens; for GI50: MOLT-4; for CC50: MOLT-4, read-out: LC50
[16] = test system: MDA-MB-31/ATCC (Breast cancer); assay: NCI-60 screen (SRB, 48 h); details: Homo sapiens; for IC (TGI): 48 h, read-out: TGI
[17] = test system: OVCAR-4 (Ovarian cancer); assay: NCI-60 screen (SRB, 48 h); format: cell-based; details: Homo sapiens; for IC (TGI): OVCAR-4, 48 h; for GI50: read-out: GI50
[18] = test system: A498 (Renal cancer); assay: NCI-60 screen (SRB, 48 h); details: Homo sapiens; for GI50: A498; for IC (TGI): A498, 48 h, read-out: TGI; for CC50: A498, read-out: LC50
[19] = test system: panel of approximately 60 cancer cell lines; assay: NCI-60 screen (SRB, 48 h), full panel; details: for Positive Cytostatic Effect (cell lines with percent growth 0 to 50 / total) / Positive Cytotoxic Effect (cell lines with percent growth < 0 / total) / number of cancer cell lines the compound was active against: 1 dose 10 µM; for activity at 10 µM / IC (TGI) / GI50 / CC50: Homo sapiens; for activity at 10 µM / IC (TGI): 48 h; for IC (TGI): read-out: TGI MG_MID60, average over all cell lines; for CC50: read-out: LC50 MG_MID60, average over all cell lines
[20] = test system: SNB-75 (CNS cancer); assay: NCI-60 screen (SRB, 48 h); details: Homo sapiens; for GI50: SNB-75; for IC (TGI): SNB-75, 48 h, read-out: TGI; for CC50: SNB-75, read-out: LC50
[21] = test system: NCI-H226 (NSC lung cancer); assay: NCI-60 screen (SRB, 48 h); details: Homo sapiens; for GI50: NCI-H226; for IC (TGI): NCI-H226, 48 h, read-out: TGI
[22] = test system: UACC-257 (Melanoma); assay: NCI-60 screen (SRB, 48 h); details: Homo sapiens; for GI50: UACC-257; for IC (TGI): UACC-257, 48 h, read-out: TGI
[23] = test system: 786-0 (Renal cancer); assay: NCI-60 screen (SRB, 48 h); details: Homo sapiens; for GI50: 786-0; for IC (TGI): 786-0, 48 h, read-out: TGI
[24] = read-out: GI50 against all human tumor cell lines
[25] = read-out: GI50 against the most sensitive cell lines

## C=C(C)[C@@H]1CC[C@]2(C)[C@H](CC=C3[C@@H]4[C@@H](C)[C@H](C)CC[C@]4(CO)CC[C@]32C)[C@@]1(C)CCCN [Compound 19]
[1]
  IC (TGI): 3.3 µM
  GI50: 1.54 µM
  CC50: 7.68 µM
[2]
  EC50: 4.64 ± 0.6 µM
[3]
  GI50: 1.74 µM
  IC (TGI): 6.38 µM
  CC50: 18.6 µM
[4]
  IC (TGI): 1.8 µM
  GI50: 0.9 µM
[4]; read-out: LC50 MG_MID
  CC50: 3.63 µM
[5]; HCC-2998, 1 dose 10 µM
  Growth % of the Most Sensitive Cell Lines: −93.35%
[5]; Homo sapiens
  GI50: 0.87 µM
  IC (TGI): 1.62 µM
[5]; Homo sapiens, HCC 2998, read-out: LC50
  CC50: 3.02 µM
[6]
  IC (TGI): 3.62 µM
  GI50: 1.28 µM
  CC50: 16.9 µM
[7]
  IC (TGI): 1.57 µM
  activity at 10 µM: -99%
  GI50: 0.86 µM
[7]; read-out: LC50 (the source's name)
  CC50: 2.86 µM
[8]
  GI50: 0.91 µM
  IC (TGI): 1.71 µM
[8]; NCI-H460, read-out: LC50
  CC50: 3.19 µM
[9]
  GI50: 0.82 µM
  IC (TGI): 1.66 µM
[9]; MDA-MB-468, read-out: LC50
  CC50: 3.36 µM
[10]
  GI50: 0.91 µM
  IC (TGI): 1.65 µM
[10]; KM12, read-out: LC50
  CC50: 3 µM
[11]
  IC (TGI): 3.81 µM
  GI50: 1.23 µM
  CC50: 33.2 µM
[12]
  IC (TGI): 3.26 µM
  GI50: 1.15 µM
  CC50: 12.6 µM
[13]
  GI50: 1.04 µM
  IC (TGI): 2.17 µM
  CC50: 4.54 µM
[14]
  GI50: 0.93 µM
  IC (TGI): 1.79 µM
[14]; OVCAR-3, read-out: LC50
  CC50: 3.44 µM
[15]
  GI50: 1.35 µM
  CC50: 27.9 µM
[15]; MOLT-4, 48 h, read-out: TGI
  IC (TGI): 4.07 µM
[16]
  GI50: 0.96 µM
  IC (TGI): 1.71 µM
[16]; read-out: LC50
  CC50: 3.04 µM
[17]
  IC (TGI): 2.85 µM
[17]; OVCAR-4
  GI50: 0.86 µM
[17]; OVCAR-4, read-out: LC50 (the source's name)
  CC50: 25 µM
[18]
  GI50: 3.83 µM
  IC (TGI): 11.2 µM
  CC50: 27.7 µM
[19]
  Positive Cytostatic Effect (cell lines with percent growth 0 to 50 / total): 20/60
  Positive Cytotoxic Effect (cell lines with percent growth < 0 / total): 28/60
  number of cancer cell lines the compound was active against: 45 cell lines
  IC (TGI): 3.89 µM
  CC50: 17 µM
[19]; read-out: Mean Growth, %
  activity at 10 µM: -4.29%
[19]; read-out: Range of Growth, %
  activity at 10 µM: -99 to 84.5%
[19]; read-out: GI50 MG_MID60
  GI50: 1.42 µM
[19]; [24]
  GI50: < 10 µM
[19]; [25]
  GI50: 0.2 to 0.94 µM
[20]
  GI50: 0.85 µM
  IC (TGI): 3.62 µM
  CC50: 17.1 µM
[21]
  GI50: 6.72 µM
  IC (TGI): 18.3 µM
[21]; NCI-H226, read-out: LC50
  CC50: 49.9 µM
[22]
  GI50: 1.07 µM
  IC (TGI): 2.21 µM
[22]; UACC-257, read-out: LC50
  CC50: 4.68 µM
[23]
  GI50: 0.84 µM
  IC (TGI): 1.58 µM
[23]; 786-0, read-out: LC50
  CC50: 2.97 µM

## Cc1ccc(S(=O)(=O)OC[C@]23CCC(C)(C)C[C@H]2C2=CC[C@@H]4[C@@]5(C)CCCNC(C)(C)[C@@H]5CC[C@@]4(C)[C@]2(C)CC3)cc1 [Compound 15]
[1]
  IC (TGI): 3.53 µM
  GI50: 1.81 µM
  CC50: 16.4 µM
[2]
  EC50: 2.76 ± 0.3 µM
[3]
  GI50: 14.9 µM
  IC (TGI): 4.05 µM
  CC50: > 100 µM
[4]
  IC (TGI): 3.25 µM
  GI50: 1.7 µM
[5]; Homo sapiens
  GI50: 1.63 µM
  IC (TGI): 3.21 µM
[6]
  IC (TGI): 3.63 µM
  GI50: 1.75 µM
  CC50: 9.14 µM
[7]
  IC (TGI): 3 µM
  activity at 10 µM: -87.7%
  GI50: 1.6 µM
[8]
  GI50: 1.77 µM
  IC (TGI): 3.37 µM
[9]
  GI50: 1.56 µM
  IC (TGI): 3.13 µM
[10]
  GI50: 1.82 µM
  IC (TGI): 3.33 µM
[11]
  IC (TGI): 4.24 µM
  GI50: 1.57 µM
  CC50: > 100 µM
[12]
  IC (TGI): 4.11 µM
  GI50: 1.78 µM
  CC50: 26.5 µM
[13]
  GI50: 1.69 µM
  IC (TGI): 3.38 µM
  CC50: 6.78 µM
[14]
  GI50: 1.84 µM
  IC (TGI): 3.51 µM
[15]
  GI50: 1.55 µM
  CC50: > 100 µM
[16]
  GI50: 1.91 µM
  IC (TGI): 4.12 µM
[17]
  IC (TGI): 3.32 µM
[17]; OVCAR-4
  GI50: 1.69 µM
[18]
  GI50: 5.99 µM
  IC (TGI): 21.4 µM
  CC50: 57.6 µM
[19]
  Positive Cytostatic Effect (cell lines with percent growth 0 to 50 / total): 17/60
  Positive Cytotoxic Effect (cell lines with percent growth < 0 / total): 14/60
  number of cancer cell lines the compound was active against: 22 cell lines
  IC (TGI): 3.8 µM
  CC50: 18.9 µM
[19]; read-out: Mean Growth, %
  activity at 10 µM: 37.2%
[19]; read-out: Range of Growth, %
  activity at 10 µM: -87.7 to 104%
[19]; read-out: GI50 MG_MID60
  GI50: 1.99 µM
[19]; [24]
  GI50: < 15 µM
[19]; [25]
  GI50: 0.2 to 0.94 µM
[20]
  GI50: 1.48 µM
  IC (TGI): 2.94 µM
  CC50: 5.85 µM
[21]
  GI50: 1.71 µM
  IC (TGI): 3.77 µM
[22]
  GI50: 1.85 µM
  IC (TGI): 3.54 µM
[23]
  GI50: 1.85 µM
  IC (TGI): 4.14 µM
